Results as given in ChEMBL document CHEMBL5113373, “Tryptophan derived natural marine alkaloids and synthetic derivatives as promising antimicrobial agents” (Eur J Med Chem, 2021).
Converted amounts (≈) assume the structure as drawn.

What was measured:
Candida albicans [1] = experiment: Antifungal activity against Candida albicans assessed as fungal growth inhibition; format: functional, organism-based
Cryptococcus neoformans = experiment: Antifungal activity against Cryptococcus neoformans assessed as fungal growth inhibition; format: functional, organism-based
Pyricularia oryzae = experiment: Antifungal activity against Pyricularia oryzae assessed as fungal growth inhibition incubated for 16 hrs by inverted microscopy; format: functional
Vibrio natriegens = experiment: Antimicrobial activity against Vibrio natriegens ATCC 14048 assessed as microbial growth inhibition incubated for 48 hrs by spectrophotometry; format: functional
Aspergillus niger = experiment: Antifungal activity against Aspergillus niger assessed as fungal growth inhibition; format: functional, organism-based
Micrococcus luteus = experiment: Antibacterial activity against Micrococcus luteus assessed as bacterial growth inhibition; format: functional, organism-based
Mycolicibacterium phlei = experiment: Antibacterial activity against Mycobacterium phlei assessed as bacterial growth inhibition; format: functional, organism-based
Saccharomyces cerevisiae = experiment: Antifungal activity against Saccharomyces cerevisiae assessed as fungal growth inhibition; format: functional, organism-based
Staphylococcus aureus [2] = experiment: Antimicrobial activity against methicillin-resistant Staphylococcus aureus assessed as microbial growth inhibition by broth microdilution method; format: functional
Escherichia coli [3] = experiment: Antimicrobial activity against Escherichia coli assessed as microbial growth inhibition by microdilution method; format: functional
Candida albicans [4] = experiment: Antimicrobial activity against Candida albicans assessed as microbial growth inhibition by microdilution method; format: functional
[5] = test system: Trichophyton mentagrophytes; experiment: Antifungal activity against Trichophyton mentagrophytes assessed as fungal growth inhibition; format: functional, organism-based
Klebsiella pneumoniae = experiment: Antibacterial activity against Klebsiella pneumoniae ATCC 14578 assessed as bacterial growth inhibition incubated for 24 hrs by broth micro dilution method; format: functional
Staphylococcus aureus [6] = experiment: Antibacterial activity against Staphylococcus aureus ATCC 16339 assessed as bacterial growth inhibition incubated for 24 hrs by broth micro dilution method; format: functional
Acinetobacter baumannii [7] = experiment: Antibacterial activity against Acinetobacter baumannii ATCC 15122 assessed as bacterial growth inhibition incubated for 24 hrs by broth micro dilution method; format: functional
Acinetobacter baumannii [8] = experiment: Antibacterial activity against Acinetobacter baumannii ATCC 19606 assessed as bacterial growth inhibition incubated for 24 hrs by broth micro dilution method; format: functional
Fusarium oxysporum = experiment: Antifungal activity against Fusarium oxysporum Momordicae assessed as fungal growth inhibition incubated for 3 days by broth micro dilution method; format: functional; conditions: 72 h, time 3 day
Pseudomonas aeruginosa = experiment: Antibacterial activity against Pseudomonas aeruginosa ATCC 9027 assessed as bacterial growth inhibition incubated for 24 hrs by agar diffusion method; format: functional
Candida albicans [9] = experiment: Antifungal activity against Candida albicans ATCC 2091 assessed as fungal growth inhibition incubated for 24 hrs by agar diffusion method; format: functional
Staphylococcus aureus [10] = experiment: Antibacterial activity against Staphylococcus aureus ATCC 6538 assessed as bacterial growth inhibition incubated for 24 hrs by agar diffusion method; format: functional
Hepatitis C virus = experiment: Antiviral activity against HCV J8CC infected in human Huh7.5 cells assessed as viral growth inhibition incubated for 48 hrs by light microscopy; format: functional, organism-based, Hepacivirus hominis; conditions: Huh7.5, 48 h
Escherichia coli [11] = experiment: Antibacterial activity against Escherichia coli assessed as bacterial growth inhibition; format: functional
Bacillus subtilis = experiment: Antibacterial activity against Bacillus subtilis assessed as bacterial growth inhibition; format: functional, organism-based
Staphylococcus aureus [12] = experiment: Antibacterial activity against Staphylococcus aureus assessed as bacterial growth inhibition; format: functional, organism-based
[13] = Inhibition of Methicillin-resistant Staphylococcus aureus pyruvate kinase assessed as measuring absorbance of NADH coupled to L-LDH using phospho enol pyruvate in presence of ADP by spectrophotometry
[14] = test system: Mycobacterium tuberculosis; experiment: Antibacterial activity against […] assessed as bacterial growth inhibition; format: functional
Staphylococcus aureus [15] = experiment: Antimicrobial activity against Staphylococcus aureus ATCC 25923 assessed as zone of inhibition incubated for 24 hrs by disc diffusion method; format: functional
Candida albicans [16] = experiment: Antimicrobial activity against Candida albicans ATCC 14053 assessed as zone of inhibition incubated for 24 hrs by disc diffusion method; format: functional
Escherichia coli [17] = experiment: Antibiofilm activity against Escherichia coli K12 ER2718 assessed as inhibition of biofilm formation incubated for 24 hrs by crystal violet method; format: functional, organism-based; conditions: K12 ER2718, 24 h
Staphylococcus aureus [18] = experiment: Antibiofilm activity against Staphylococcus aureus ATCC 29213 assessed as inhibition of biofilm formation incubated for 24 hrs by crystal violet method; format: functional, organism-based; conditions: ATCC 29213, 24 h
Acinetobacter baumannii [19] = experiment: Antibiofilm activity against Acinetobacter baumannii ATCC 19606 assessed as inhibition of biofilm formation at 100 uM incubated for 24 hrs by crystal violet method relative to control; format: functional; set-up: scale not given: the % may be the effect or the level left

CSc1c(-c2c(-c3c[nH]c4ccc(O)cc34)c(=O)n3c4ccc(O)cc4c4cc(C(=O)O)nc2c43)[n+](C)cn1C
IC50 (Candida albicans [1]): 14.5 µM | IC50 (Cryptococcus neoformans): 14.5 µM

CC(C)=CCn1cc(CC2NC(=O)C(C(C)C)NC2=O)c2ccccc21 (stereo unspecified)
MIC (Pyricularia oryzae): 0.36 µM (≈ 0.127 µg/mL)

C/N=C1\NC(Cc2c[nH]c3cc(Br)c(Br)cc23)C(=O)N1C (stereo unspecified)
MIC (Vibrio natriegens): 2.4 µM (≈ 0.994 µg/mL)

CC(C)CC(=O)Nc1c(O)c(C(C[N+](C)(C)C)c2c[nH]c3cc(Br)ccc23)c2ccnc3c2c1NC=C3 (stereo unspecified)
IC50 (Candida albicans [1]): 14.2 µM

C[N+](C)(C)CC(c1c[nH]c2cc(Br)ccc12)c1c2ccnc3c2c(c2nc(CS(=O)(=O)[O-])oc12)NC=C3 (stereo unspecified)
MIC (Aspergillus niger): 27.5 µM (≈ 16 µg/mL)

C=CC(C)(C)c1c(CCNC)c2ccc(Br)cc2n1CC=C(C)C
IC50 (Micrococcus luteus): 5.9 µM | IC50 (Mycolicibacterium phlei): 7.7 µM | IC50 (Saccharomyces cerevisiae): 17.9 µM

Cc1cncc(Cc2c[nH]c3ccccc23)n1
MIC (Staphylococcus aureus [2]): 53.7 µM (≈ 12 µg/mL) | MIC (Escherichia coli [3]): 35.8 µM | MIC (Candida albicans [4]): 62.7 µM

C=CC(C)(C)c1c(CCNC)c2ccccc2n1CC=C(C)C
IC50 (Micrococcus luteus): 22.6 µM | IC50 (Mycolicibacterium phlei): 7.7 µM

O=C1CN=C(c2c[nH]c3ccc(O)cc23)c2c(O)ccc3[nH]cc1c23
IC50 [5]: 48.3 µM

O=C1N[C@]2(CO)c3[nH]c4ccccc4c3C[C@@H]1n1c2nc2ccccc2c1=O
MIC (Klebsiella pneumoniae): 16.8 µM (≈ 6.26 µg/mL) | MIC (Staphylococcus aureus [6]): 16.8 µM (≈ 6.26 µg/mL) | MIC (Acinetobacter baumannii [7]): 16.8 µM (≈ 6.26 µg/mL) | MIC (Acinetobacter baumannii [8]): 16.8 µM (≈ 6.26 µg/mL) | MIC (Fusarium oxysporum): 4 µM (≈ 1.49 µg/mL)

O=C(O)c1c(-c2c[nH]c3cc(O)ccc23)ncc2[nH]c3ccc(O)cc3c12
diameter of the inhibition zone (DIZ) (Pseudomonas aeruginosa): 7 mm | diameter of the inhibition zone (DIZ) (Candida albicans [9]): 9 mm | diameter of the inhibition zone (DIZ) (Staphylococcus aureus [10]): 10 mm

CC(C)[C@@H]1NC(=O)[C@@H](C[C@@]2(O)c3ccccc3N3C(=O)C(C)(C)N[C@@H]32)n2c1nc1ccccc1c2=O
EC50 (Hepatitis C virus): 129 µM

O=C1Nc2ccccc2[C@@]1(O)Cc1cncc(Cc2c[nH]c3ccccc23)n1
MIC (Staphylococcus aureus [2]): 32.4 µM (≈ 12 µg/mL) | MIC (Escherichia coli [3]): 27 µM | MIC (Candida albicans [4]): 32.4 µM

CSc1c(-c2c(-c3c[nH]c4ccc(O)cc34)c(=O)n3c4ccc(O)cc4c4ccnc2c43)[n+](C)cn1C
IC50 (Candida albicans [1]): 7.9 µM | IC50 (Cryptococcus neoformans): 7.9 µM | MIC [5]: 31.5 µM

CO[C@@H]1c2c[nH]c3ccc(O)c(c23)C(c2c[nH]c3ccc(O)cc23)=N[C@@H]1C(C)=O
MIC (Escherichia coli [11]): 41.1 µM (≈ 16 µg/mL) | MIC (Bacillus subtilis): 41.1 µM (≈ 16 µg/mL)

C[N+](C)(C)CC(c1c[nH]c2cc(Br)ccc12)c1c(O)c(O)c2c3c(nccc13)C=CN2 (stereo unspecified)
IC50 (Micrococcus luteus): 4.2 µM | IC50 (Candida albicans [1]): 0.5 µM | IC50 (Cryptococcus neoformans): 0.5 µM | IC50 (Staphylococcus aureus [12]): 4.2 µM | IC50 (Bacillus subtilis): 4.2 µM | IC50 [5]: 0.5 µM

O=C1NC[C@@H](c2c[nH]c3cc(Br)ccc23)N[C@H]1c1c[nH]c2cc(Br)ccc12 (relative stereo) [CIS-3,4-DIHYDROHAMACANTHIN B]
MIC (Staphylococcus aureus [2]): 0.016 µM (≈ 0.00781 µg/mL) | IC50 [13]: 5.1 µM

O=C1N[C@@H](Cc2c[nH]c3ccccc23)C(=O)N2CCC[C@@H]12 [BREVIANAMIDE F]
MIC [14]: 44.1 µM (≈ 12.5 µg/mL) | diameter of the inhibition zone (DIZ) (Staphylococcus aureus [15]): 19 mm | diameter of the inhibition zone (DIZ) (Candida albicans [16]): 25 mm

C=CC(C)(C)c1[nH]c2cc(Br)ccc2c1CCNC [DESFORMYLFLUSTRABROMINE]
IC50 (Escherichia coli [17]): 174 µM | IC50 (Staphylococcus aureus [18]): 70 µM

C=CC(C)(C)[C@@]12CCN(C)C1=Nc1cc(Br)ccc12 [FLUSTRAMINE C]
Activity (Acinetobacter baumannii [19]): 30%

C[C@@H]1NC(=O)[C@@H](Cc2c[nH]c3ccccc23)n2c1nc1ccccc1c2=O [FUMIQUINAZOLINE F]
MIC (Micrococcus luteus): 276 µM (≈ 99 µg/mL) | MIC (Staphylococcus aureus [12]): 382 µM (≈ 137 µg/mL)

Brc1ccc2c(-c3c[nH]c(-c4c[nH]c5cc(Br)ccc45)n3)c[nH]c2c1 [NORTOPSENTIN A]
IC50 (Candida albicans [1]): 6.8 µM

Brc1ccc2c(-c3nc(-c4c[nH]c5ccccc45)c[nH]3)c[nH]c2c1 [NORTOPSENTIN B]
IC50 (Candida albicans [1]): 6.8 µM

Brc1ccc2c(-c3c[nH]c(-c4c[nH]c5ccccc45)n3)c[nH]c2c1 [NORTOPSENTIN C]
IC50 (Candida albicans [1]): 6.8 µM
